Results: patent publication US20250282776A1, “Bicyclic TLR7 Agonists and Uses Thereof” (Bristol-Myers Squibb Company, priority 2024, published 2025)

Assays:
human TLR7 (hTLR7) = molecular target: T1, human TLR7 (hTLR7) (Homo sapiens, UniProt Q9NYK1); assay: Human TLR7 agonist activity assay (HEK-Blue TLR7 SEAP reporter); format: cell-based; settings: HEK-Blue TLR7 cells, 18 h incubation, Quanti-Blue, OD 620 nm, some values average of multiple measurements
T1 construct: host or cells: HEK-Blue TLR7 cells (engineered human embryonic kidney cells)
T1 sequence (Q9NYK1 27-1049): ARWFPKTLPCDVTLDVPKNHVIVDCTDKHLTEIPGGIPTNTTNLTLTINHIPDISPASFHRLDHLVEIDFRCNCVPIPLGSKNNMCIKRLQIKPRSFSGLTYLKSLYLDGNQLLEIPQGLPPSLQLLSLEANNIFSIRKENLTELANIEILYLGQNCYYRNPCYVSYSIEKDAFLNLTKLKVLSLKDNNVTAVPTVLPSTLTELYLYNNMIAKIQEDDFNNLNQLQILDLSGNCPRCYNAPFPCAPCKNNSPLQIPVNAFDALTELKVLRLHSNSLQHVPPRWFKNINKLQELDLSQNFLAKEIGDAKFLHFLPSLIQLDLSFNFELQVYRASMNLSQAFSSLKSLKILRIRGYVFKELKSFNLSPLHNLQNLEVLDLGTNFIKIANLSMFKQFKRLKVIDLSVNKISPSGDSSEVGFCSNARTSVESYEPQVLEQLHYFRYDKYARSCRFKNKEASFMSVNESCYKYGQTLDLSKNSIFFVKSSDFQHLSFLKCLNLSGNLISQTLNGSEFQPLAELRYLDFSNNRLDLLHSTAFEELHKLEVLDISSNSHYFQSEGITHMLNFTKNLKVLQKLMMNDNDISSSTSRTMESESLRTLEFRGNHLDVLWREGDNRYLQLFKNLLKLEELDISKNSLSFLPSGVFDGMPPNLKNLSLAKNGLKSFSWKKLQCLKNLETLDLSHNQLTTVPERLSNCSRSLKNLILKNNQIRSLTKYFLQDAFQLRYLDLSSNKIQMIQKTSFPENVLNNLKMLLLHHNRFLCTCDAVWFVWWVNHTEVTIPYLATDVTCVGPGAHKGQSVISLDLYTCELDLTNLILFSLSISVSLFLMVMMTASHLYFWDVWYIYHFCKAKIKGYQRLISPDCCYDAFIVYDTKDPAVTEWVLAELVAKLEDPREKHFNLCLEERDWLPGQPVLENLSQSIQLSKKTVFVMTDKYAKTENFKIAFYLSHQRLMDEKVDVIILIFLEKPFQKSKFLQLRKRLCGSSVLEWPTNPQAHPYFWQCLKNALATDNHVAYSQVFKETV
Description: (§1) This procedure describes a method for assaying human TLR7 (hTLR7) and human TLR8 (hTLR8) agonist activity of the compounds disclosed herein.
(§2) HEK-Blue™ TLR7 cells were added to each well of a 384-well tissue-culture plate (15,000 cells per well) and incubated 16-18 h at 37° C., 5% CO2. Compounds (100 nL) were dispensed into wells containing the HEK-Blue™ TLR cells and the treated cells were incubated at 37° C., 5% CO2. After 18 h, ten microliters 5 of freshly prepared Quanti-Blue™ reagent (Invivogen) was added to each well and incubated for 30 min (37° C., […]). SLAP levels were measured using an Envision plate reader (OD=620 nm). The half maximal effective concentration values (ECSO; compound concentration which induced a response halfway between the assay baseline and maximum) were calculated. Some of the reported activities were the average of multiple measurements.

human TLR8 (hTLR8) = molecular target: T2, human TLR8 (hTLR8) (Homo sapiens, UniProt Q9NR97); assay: Human TLR8 agonist activity assay (measured in a similar manner); format: cell-based; settings: HEK-Blue TLR cells, SEAP reporter, measured in a similar manner to TLR7; some values average of multiple measurements
T2 construct: expressed in transfected cells
T2 sequence (Q9NR97 27-1041): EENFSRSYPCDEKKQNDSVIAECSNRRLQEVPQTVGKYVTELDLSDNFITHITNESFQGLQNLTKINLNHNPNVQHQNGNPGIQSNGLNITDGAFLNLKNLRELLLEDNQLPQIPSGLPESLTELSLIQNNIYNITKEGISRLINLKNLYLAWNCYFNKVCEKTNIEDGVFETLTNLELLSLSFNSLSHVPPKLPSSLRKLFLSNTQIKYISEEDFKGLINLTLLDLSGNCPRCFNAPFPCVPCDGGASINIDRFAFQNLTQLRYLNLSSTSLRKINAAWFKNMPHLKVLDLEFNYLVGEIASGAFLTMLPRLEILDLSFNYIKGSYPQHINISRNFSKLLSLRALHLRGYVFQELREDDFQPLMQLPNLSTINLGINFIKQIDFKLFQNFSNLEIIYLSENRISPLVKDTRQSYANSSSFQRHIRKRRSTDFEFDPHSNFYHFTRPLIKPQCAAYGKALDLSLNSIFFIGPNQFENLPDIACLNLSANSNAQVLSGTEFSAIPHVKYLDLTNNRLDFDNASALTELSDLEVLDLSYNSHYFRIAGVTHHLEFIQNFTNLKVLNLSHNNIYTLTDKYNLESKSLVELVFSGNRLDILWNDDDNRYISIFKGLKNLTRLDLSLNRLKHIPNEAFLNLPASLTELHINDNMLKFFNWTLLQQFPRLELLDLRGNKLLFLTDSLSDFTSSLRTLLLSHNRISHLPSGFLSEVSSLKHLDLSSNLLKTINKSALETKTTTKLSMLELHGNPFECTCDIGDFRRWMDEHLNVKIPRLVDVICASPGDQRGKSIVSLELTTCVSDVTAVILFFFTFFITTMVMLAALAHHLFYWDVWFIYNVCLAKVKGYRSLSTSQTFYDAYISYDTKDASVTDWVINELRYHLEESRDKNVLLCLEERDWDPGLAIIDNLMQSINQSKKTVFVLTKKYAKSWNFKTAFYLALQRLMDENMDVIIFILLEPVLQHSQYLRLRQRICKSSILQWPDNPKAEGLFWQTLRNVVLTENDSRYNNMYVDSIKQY
Description: as §1
as §2, with “The half maximal effective concentration values (ECSO; compound concentration which induced a response halfway between the assay baseline and maximum) were calculated.” left out
TLR8 activity was measured in a similar manner.

| SMILES | EC50 (human TLR7 (hTLR7)) [nM] | EC50 (human TLR8 (hTLR8)) [nM] |
| --- | --- | --- |
| CCCCN(c1nc(N)nc2cn(Cc3ccc(CN4CCCCC4)cc3OC)nc12)C(C)CO (single isomer, unassigned) [Compound 49-1, 2-((5-amino-2-(2-methoxy-4-(piperidin-1-ylmethyl)benzyl)-2H-pyrazolo[4,3-d]pyrimidin-7-yl)(butyl)amino)propan-1-ol] | 374 | 949 |
| CCCCN(CCO)c1nc(N)nc2cn(Cc3ccc(CN4CC5(CCO5)C4)cc3OC)nc12 [Compound 28] | 284 | 266 |
| CCCCN(CCO)c1nc(N)nc2cn(Cc3ccc(CNC4CCN(C)CC4)c4cccnc34)nc12 [Compound 65] | 2090 | 2380 |
| CCCCN(CCO)c1nc(N)nc2cn(Cc3c(F)cc(C4=CCNCC4)cc3OC)nc12 [Compound 15] | 688 | 2510 |
| CCCCN(CCO)c1nc(N)nc2cn(Cc3c(OC)cc(CN[C@@H]4CCOC4)cc3OC)nc12 [Compound 145] | 1440 | 2020 |
| CCCCN(CCO)c1nc(N)nc2cn(Cc3ccc(CNC4CCOCC4)c4nccnc34)nc12 [Compound 206] | 1900 | 1190 |
| CCCCN(CCO)c1nc(N)nc2cn(Cc3c(F)cc(CNCCO)cc3OC)nc12 [Compound 72] | 738 | 835 |
| CCCCN(CCO)c1nc(N)nc2cn(Cc3ccc(CNC(C)(C)C)c4c3OCCC4)nc12 [Compound 148] | 1840 | 462 |
| CCCCN(CCO)c1nc(N)nc2cn(Cc3ccc(CN[C@H]4C[C@H](OC)C4)c4c3OCCC4)nc12 [Compound 138] | 1410 | 608 |
| CCCCN(c1nc(N)nc2cn(Cc3ccc(CN[C@@H]4CCOC4)cc3OC)nc12)C(C)CO (stereo partly shown) [Compound 68] | 349 | 1320 |
| CCCCN(CCO)c1nc(N)nc2cn(Cc3ccc(CNC4(CO)CCOCC4)cc3OC)nc12 [Compound 154] | 2140 | 1100 |
| CCCCN(CCO)c1nc(N)nc2cn(Cc3c(F)cc(CNC4(CO)CC4)cc3OC)nc12 [Compound 91] | 1220 | 2080 |
| CCCCN(CCO)c1nc(N)nc2cn(Cc3ccc(CNC4COC4)cc3OC)nc12 [Compound 26] | 828 | 1140 |
| CCCCN(CCO)c1nc(N)nc2cn(Cc3c(F)cc(C4CCN(C(C)C)CC4)cc3C#N)nc12 [Compound 151] | 612 | 1830 |
| CCCCN(CCO)c1nc(N)nc2cn(Cc3ccc(CNCC(C)(C)O)cc3OC)nc12 [Compound 9] | 1620 | 1250 |
| CCCCN(CCO)c1nc(N)nc2cn(Cc3ccc(CN[C@H]4CCCN(C)C4)c4cccnc34)nc12 [Compound 168] | 587 | 1100 |

| SMILES | EC50 (human TLR7 (hTLR7)) [nM] | EC50 (human TLR8 (hTLR8)) [nM] |
| --- | --- | --- |
| CCCCN(CCO)c1nc(N)nc2cn(Cc3ccc(CN4CC5(CC(OC)C5)C4)cc3OC)nc12 [Compound 6] | 680 | 892 |
| CCCCN(CCO)c1nc(N)nc2cn(Cc3c(F)cc(CNCC(C)(C)O)cc3OC)nc12 [Compound 81] | 1000 | 1430 |
| CCCCN(CCO)c1nc(N)nc2cn(Cc3ccc(CNC4CCOCC4)cc3OC)nc12 [Compound 3] | 970 | 596 |
| CCCCN(CCO)c1nc(N)nc2cn(Cc3ccc(CNC4(C)CCOCC4)cc3OC)nc12 [Compound 88, 2-((5-Amino-2-(2-methoxy-4-(((4-methyltetrahydro-2H-pyran-4-yl)amino)methyl)benzyl)-2H-pyrazolo[4,3-d]pyrimidin-7-yl)(butyl)amino)ethan-1-ol] | 805 | 535 |
| CCCCN(CCO)c1nc(N)nc2cn(Cc3ccc(CNC4CCOC(C)C4)cc3OC)nc12 (stereo not shown) [Compound 125] | 2250 | 2030 |
| CCCCN(CCO)c1nc(N)nc2cn(Cc3cccc4c3OCCN4C(=O)CNC3CCC3)nc12 [Compound 134] | 2240 | 1860 |
| CCCCN(CCO)c1nc(N)nc2cn(Cc3c(F)cc(N4CCC(N[C@@H]5CCCOC5)CC4)cc3F)nc12 [Compound 132] | 389 | 1860 |
| CCCCN(CCO)c1nc(N)nc2cn(Cc3ccc(CNCC)cc3OC)nc12 [Compound 17] | 1150 | 745 |
| CCCCN(CCO)c1nc(N)nc2cn(Cc3ccc(CNC4CCCOC4)cc3OC)nc12 (stereo not shown) [Compound 105] | 1820 | 2780 |
| CCCCN(CCO)c1nc(N)nc2cn(Cc3ccc(CN[C@@H]4CCOC4)n4ccnc34)nc12 [Compound 187, (R)-2-((5-Amino-2-((5-(((tetrahydrofuran-3-yl)amino)methyl)imidazo[1,2-a]pyridin-8-yl)methyl)-2H-pyrazolo[4,3-d]pyrimidin-7-yl)(butyl)amino) ethan-1-ol] | 674 | 860 |
| CCCCN(CCO)c1nc(N)nc2cn(Cc3ccc(CNC4CCC4)c4cccnc34)nc12 [Compound 46, 2-((5-Amino-2-((5-((cyclobutylamino)methyl)quinolin-8-yl)methyl)-2H-pyrazolo[4,3-d]pyrimidin-7-yl)(butyl)amino)ethan-1-ol] | 326 | 360 |
| CCCCN(CCO)c1nc(N)nc2cn(Cc3c(F)cc(CN[C@H]4C[C@H](OC)C4)cc3F)nc12 [Compound 119] | 136 | 1960 |
| CCCCN(CCO)c1nc(N)nc2cn(Cc3ccc(CN[C@@H]4CCOC4)cc3)nc12 [Compound 157] | 1160 | 460 |
| CCCCCN(CCO)c1nc(N)nc2cn(Cc3ccc(CNC4CCC4)cc3OC)nc12 [Compound 44] | 825 | 705 |
| COc1cc(CN[C@@H]2CCOC2)ccc1Cn1cc2nc(N)nc(N(CCO)CCCCF)c2n1 [Compound 173] | 2630 | 3130 |
| CCCCN(CCO)c1nc(N)nc2cn(Cc3c(F)cc(CNC4CCOCC4)cc3OC)nc12 [Compound 74] | 741 | 1280 |
